Publication PMC3264756 (2011)

Biological target: acetyl-CoA carboxylase (TbACC) (Trypanosoma brucei, UniProt Q57YR7)
Assay type: biochemical

Question: Which EC50 does the source give for `CC(Oc1ccc(Oc2ncc(C(F)(F)F)cc2Cl)cc1)C(=O)O` (stereo not shown) [haloxyfop] here?
Answer: 67 µM
